Measurements as given in ChEMBL document CHEMBL5543065, “ATP ion channel P2X7 receptor as a regulatory molecule in the progression of colorectal cancer” (Eur J Med Chem, 2023).

Key:
HCT-116 [1] = test: Antiproliferative activity against human HCT-116 cells assessed as reduction in cell growth incubated for 72 hrs by MTT assay; type: functional, cell-based; settings: HCT-116, 72 h
HCT-116 [2] = test: Antiproliferative activity against human HCT-116 cells assessed as reduction in cell viability incubated for 24 hrs by CCK-8 assay; type: functional, cell-based; settings: HCT-116, 24 h

Compound	IC50 (HCT-116 [1]) [nM]	IC50 (HCT-116 [2]) [nM]
O=C(Nc1ccc(C(F)(F)F)cc1)Nc1nnc(Sc2cc(NCCCN3CCOCC3)ncn2)s1	5520	
O=C1c2ccccc2C(=O)c2c(-c3ccccc3F)noc21		350
